≈ marks a conversion by molar mass, not a printed value.
Columns and labels:
[1] = test system: Human colon cancer strain KM20C; test: Antitumor test using tumor-subcutaneously-implanted nude mouse system upon oral administration (equimolar dose); assay type: in vivo, BALB/cA Jcl-nu mouse; conditions: once per day for 14 days, dose equimolar to 18 mg of CNDAC/kg of body weight per day, evaluated on the 29th day after grouping, vs untreated group
Protocol: Antitumor Test using Tumor-Subcutaneously-Implanted Nude Mouse System Upon Oral Administration
(§1) Human colon cancer strain KM20C subcutaneously subcultured in a BALB/cA Jcl-nu mouse (product of Clea Japan Inc.) was prepared into fragments of 2 mm×2 mm, and subcutaneously implanted into the backs of 6-week-old BALB/cA Jcl-nu mice. When the average tumor volume exceeded 100 mm^3, the length of each tumor was measured along the major axis and minor axis, and the tumor volume was calculated using the following equation. The mice were then divided into several groups to reduce variations in tumor volume among the groups (5 or 6 mice per group). Vt=½(Vl)×(Vs)^2, (Equation 1)
wherein Vt represents a tumor volume, Vl represents the length along the tumor major axis, and Vs represents the length along the tumor minor axis.
Test compounds were each dissolved or suspended in a 0.5% hydroxypropylmethylcellulose solution prepared with 100 mM citrate buffer (pH 5.0), and, from the day after the day of grouping, orally administered to the mice once per day for 14 days. The dose was set to be equimolar to 18 mg of CNDAC/kg of body weight per day.
On the 29th day after the day of grouping, with respect to the mice in each group, the longest diameter and shortest diameter of each of the subcutaneously implanted tumors were measured. The relative tumor volume (RTV) and the tumor growth inhibition rate (1R) were calculated using the following equation to evaluate antitumor effects. RTV=Vt1/Vt2, (Equation 2)
wherein RTV represents a relative tumor volume, Vt1 represents the tumor volume on the day of evaluation, and Vt2 represents the tumor volume on the day of grouping. IR(%)=[1−(RTVtest)/(RTVcont)]×100, (Equation 3)
wherein IR represents a tumor growth inhibition rate, RTVtest represents the average RTV value in a drug administration group, and RTVcont represents the average RTV value in an untreated group.

[2] = Measurement of water solubility; conditions: for solubility at 75 min: water, 37 °C, thermodynamic from solid
Protocol: Measurement of Water Solubility
Test compounds (2 mg or more) were each suspended in water (1 ml), then sonicated for 10 seconds, and incubated at 37° C. for 75 minutes. After filtration through a membrane filter (Millex-LG, 0.2 μm, product of Millipore Corporation), 100 μl of the obtained filtrate was diluted with acetonitrile (100 μl), and analyzed using a high performance liquid chromatograph apparatus.
The solubility of each test compound in water was calculated from the calibration curve.

[3] = test system: Human colon cancer strain KM20C; test: Antitumor test using tumor-subcutaneously-implanted nude mouse system upon oral administration at an equitoxic dose; assay type: in vivo, BALB/cA Jcl-nu mouse; conditions: once per day for 14 days; for tumor course after completion of administration (regrowth): 20th to 25th day after grouping (about 1 week after completion of administration)
Protocol: Antitumor Test of CNDAC, P-CNDAC, and Compounds 1 and 11 of the Present Invention using Tumor-Subcutaneously-Implanted Nude Mouse System Upon Oral Administration at an Equitoxic Dose.
as §1, with “On” for “When”, “15th day after the day of implantation,” for “average tumor volume exceeded 100 mm^3,”, “Vt=1/2(Vl)×(Vs)2” for “Vt=½(Vl)×(Vs)^2,”, “5) wherein Vt represents a tumor volume, Vl represents the length along the tumor major axis, and Vs represents the length along the tumor minor axis.” for “1)”
CNDAC, P-CNDAC, and Compounds 1 and 11 were each dissolved or suspended in a 0.5% hydroxypropylmethylcellulose solution prepared with 100 mM citrate buffer (pH 5.0), and, from the day after the day of grouping, orally administered at an equitoxic dose once per day for 14 days.
With respect to the mice in each group, the length of each of the subcutaneously implanted tumors was measured along the major axis and minor axis twice a week. RTV was calculated as a reference of tumor growth using the following equation to evaluate antitumor effects. RTV=Vt1/Vt2, (Equation 6)
wherein RTV represents a relative tumor volume, Vt1 represents the tumor volume on the day of evaluation, and Vt2 represents the tumor volume on the day of grouping.

[4] = Pharmacokinetic testing in SD (IGS) rats, oral administration, CNDAC serum concentration; assay type: in vivo; conditions: 10 mg/kg of body weight, rat, dose equivalent to 10 mg of CNDAC/kg of body weight, 0 to 8 hours after administration
Protocol: Pharmacokinetic Testing in SD (IGS) Rats
Test compounds were orally administered to SD (IGS) rats (product of Charles River Laboratories Japan, Inc.; 8 weeks old), and, based on the CNDAC serum concentration in the rats, orally administered absorbability and in vivo activation into CNDAC were evaluated.
In the morning of the test day, predetermined amounts of test compounds were each dissolved or suspended in a 0.5% hydroxypropylmethylcellulose solution prepared with 100 mM citrate buffer (pH 4.5), and orally administered. CNDAC was administered at a dose of 10 mg/kg of body weight, and other test compounds were administered at a dose equivalent to 10 mg of CNDAC/kg of body weight. Blood was collected from the jugular vein 0.5, 1, 2, 4, 6, and 8 hours after administration of the test compounds (two or three rats per point) to obtain serum. The serum concentrations of the compounds and CNDAC were measured using LC/MS, and the area under the curve (AUC) of the CNDAC serum concentration from 0 to 8 hours after administration were calculated.

melting point | solubility at 75 min [2] [µg/mL] | Compound | IR (%) tumor growth inhibition rate [1] [%] | further results
72.7 °C | – | C=CCCCCCCCOC(=O)Nc1ccn([C@@H]2O[C@H](CO)[C@@H](O)[C@@H]2C#N)c(=O)n1 [Compound 6, 4-N-(8-Nonen-1-yloxycarbonyl)-2′-cyano-2′-deoxy-1-β-D-arabinofuranosylcytosine] | – | –
113 °C | – | N#C[C@H]1[C@H](O)[C@@H](COC(=O)Oc2ccc(Cl)cc2)O[C@H]1n1ccc(N)nc1=O [Compound 17, 5′-O-(4-Chlorophenyloxycarbonyl)-2′-cyano-2′-deoxy-1-β-D-arabinofuranosylcytosine] | 58 | –
71.1 °C | – | CCCCCC/C=C/COC(=O)Nc1ccn([C@@H]2O[C@H](CO)[C@@H](O)[C@@H]2C#N)c(=O)n1 [Compound 5, 4-N—[(E)-2-Nonen-1-yloxycarbonyl]-2′-cyano-2′-deoxy-1-β-D-arabinofuranosylcytosine] | – | –
143.1 °C | > 50 | CCCCCCCCOC(=O)OC[C@H]1O[C@@H](n2ccc(N)nc2=O)[C@@H](C#N)[C@@H]1O [Compound 10, 5′-O-(n-Octyloxycarbonyl)-2′-cyano-2′-deoxy-1-β-D-arabinofuranosylcytosine] | 89 | –
– | > 1000 | N#C[C@H]1[C@H](O)[C@@H](CO)O[C@H]1n1ccc(N)nc1=O [CNDAC, 2′-cyano-2′-deoxy-1-β-D-arabinofuranosylcytosine, reference compound] | 54 | AUC(0-t) [4]: 493 ng·h/mL; tumor disappearance [3]: tumors did not disappear; tumor course after completion of administration (regrowth) [3]: tumor regrowth was observed; water solubility, in words ([2]; in water, 37° C.): extremely high water solubility
83.6 °C | – | CCCCC(CCCC)OC(=O)Nc1ccn([C@@H]2O[C@H](CO)[C@@H](O)[C@@H]2C#N)c(=O)n1 [Compound 2, 4-N-(Nonan-5-yloxycarbonyl)-2′-cyano-2′-deoxy-1-β-D-arabinofuranosylcytosine] | – | –
182.7 °C (dec.) | – | CC(C)CC(CC(C)C)OC(=O)OC[C@H]1O[C@@H](n2ccc(N)nc2=O)[C@@H](C#N)[C@@H]1O [Compound 14, 5′-O-(2,6-Dimethylheptan-4-yloxycarbonyl)-2′-cyano-2′-deoxy-1-β-D-arabinofuranosylcytosine] | – | –
66 °C | 21.1 (≈ 49.9 µM) | CCCCCCCCCOC(=O)Nc1ccn([C@@H]2O[C@H](CO)[C@@H](O)[C@@H]2C#N)c(=O)n1 [Compound 1, 4-N-(n-Nonyloxycarbonyl)-2′-cyano-2′-deoxy-1-β-D-arabinofuranosylcytosine] | 96 | reduction of tumor volume (RTV), FIG. 1 [3]: greater reduction of tumor volume than CNDAC and P-CNDAC; tumor disappearance [3]: tumor disappearance was achieved in one of the five cases; tumor course after completion of administration (regrowth) [3]: the tumor size continued to reduce even after completion of administration
67.5 °C | – | CCCCCCCCOC(=O)Nc1ccn([C@@H]2O[C@H](CO)[C@@H](O)[C@@H]2C#N)c(=O)n1 [Compound 16, 4-N-(n-Octyloxycarbonyl)-2′-cyano-2′-deoxy-1-β-D-arabinofuranosylcytosine] | 38 | –
97 °C | – | CCCCCCCCCCOC(=O)Nc1ccn([C@@H]2O[C@H](CO)[C@@H](O)[C@@H]2C#N)c(=O)n1 [Compound 15, 4-N-(n-Decyloxycarbonyl)-2′-cyano-2′-deoxy-1-β-D-arabinofuranosylcytosine] | 22 | –

Further lines, the compound ahead of its results:

Compound | melting point | solubility at 75 min [2] [µg/mL] | IR (%) tumor growth inhibition rate [1] [%] | further results
CCCCCCCOC(=O)OC[C@H]1O[C@@H](n2ccc(N)nc2=O)[C@@H](C#N)[C@@H]1O [Compound 9, 5′-O-(n-Heptyloxycarbonyl)-2′-cyano-2′-deoxy-1-β-D-arabinofuranosylcytosine] | 152.2 °C | > 50 | 78 | –
CCCCCC/C=C\COC(=O)Nc1ccn([C@@H]2O[C@H](CO)[C@@H](O)[C@@H]2C#N)c(=O)n1 [Compound 7, 4-N—[(Z)-2-Nonen-1-yloxycarbonyl]-2′-cyano-2′-deoxy-1-β-D-arabinofuranosylcytosine] | – | > 50 | 96 | –
CCCCC/C=C\CCOC(=O)Nc1ccn([C@@H]2O[C@H](CO)[C@H](O)[C@@H]2C#N)c(=O)n1 [Compound 4, 4-N—[(Z)-3-Nonen-1-yloxycarbonyl]-2′-cyano-2′-deoxy-1-β-D-arabinofuranosylcytosine] | – | – | 93 | –
CCCCC(CCCC)OC(=O)OC[C@H]1O[C@@H](n2ccc(N)nc2=O)[C@@H](C#N)[C@@H]1O [Compound 11, 5′-O-(Nonan-5-yloxycarbonyl)-2′-cyano-2′-deoxy-1-β-D-arabinofuranosylcytosine] | 167.2 °C | 49.5 (≈ 117 µM) | 93 | reduction of tumor volume (RTV), FIG. 1 [3]: greater reduction of tumor volume than CNDAC and P-CNDAC; tumor course after completion of administration (regrowth) [3]: the tumor size continued to reduce even after completion of administration
CCCCCCCCCCCCCCCC(=O)Nc1ccn([C@@H]2O[C@H](CO)[C@@H](O)[C@@H]2C#N)c(=O)n1 [P-CNDAC, 4-N-palmitoyl-2′-cyano-2′-deoxy-1-β-D-arabinofuranosylcytosine, reference compound] | – | – | – | tumor disappearance [3]: tumors did not disappear; tumor course after completion of administration (regrowth) [3]: tumor regrowth was observed; water solubility, in words ([2]; in water, 37° C.): low water solubility; Water Solubility ([2]; in water, 37° C., 75 minutes, filtrate analysed by HPLC): <0.5 µg/mL
CC/C=C\CCCCCOC(=O)Nc1ccn([C@@H]2O[C@H](CO)[C@@H](O)[C@@H]2C#N)c(=O)n1 [Compound 3, 4-N—[(Z)-6-Nonen-1-yloxycarbonyl]-2′-cyano-2′-deoxy-1-β-D-arabinofuranosylcytosine] | 72.4 °C | – | – | –
CCCCCCOC(=O)OC[C@H]1O[C@@H](n2ccc(N)nc2=O)[C@@H](C#N)[C@@H]1O [Compound 8, 5′-O-(n-Hexyloxycarbonyl)-2′-cyano-2′-deoxy-1-β-D-arabinofuranosylcytosine] | 154.1 °C | > 50 | 76 | –
